The numbers were not newly measured in patent US20210213050A1, “Compositions and Methods for the Removal of Extraneous Calcium Hydroxyapatite” (HENRY FORD HEALTH SYSTEM, priority 2018, published 2021), which cites them from elsewhere.

The structures appear in SMILES notation.

The conditions of series [1]: fold higher than CaHA; proposed mechanism.

As for `O=S([O-])S(=O)(=O)[O-].[Na+].[Na+]` [SMB, sodium metabisulfite], the “CaHA remaining after topical treatment alone” value (porcine skin, topical SMB alone, histology after approximately 24 hours) is listed as “approximately 50%”. Regarding `O=S([O-])([O-])=S.[Ca+2]` [calcium thiosulfate salt, calcium thiosulfate], the “solubility of calcium thiosulfate salt relative to CaHA” value in series [1] is 250- to 100,000 fold. Turning to `O=S([O-])([O-])=S.[Na+].[Na+]` [sodium thiosulfate], under “porcine skin samples injected subdermally with CaHA, intralesional sodium thiosulfate 0.2 mL, 12.5 g/50 mL, alone or with topical sodium metabisulfite”, the “ability to dissolve previously injected CaHA microspheres” value is reported as “able to dissolve previously injected CaHA microspheres”. Also, under “porcine skin, intralesional sodium thiosulfate, 24 hours later”, the “visible CaHA microspheres on histologic analysis of the treated area” value is “no visible CaHA microspheres were observed”.
